In experiment [1] the test system is A549 cells. Nature of the experiment: Cell proliferation PAD assay, A549. It is filed as cell-based. The note with it: Homo sapiens, 3pt, 48 hours, read-out: A549 3pt. How it is done: (§1) Cell lines used are available from American Type Culture Collection (ATCC), for example, cell cultures containing A549 (ATCC# CCL-185), HeLa (ATCC# CCL-2), HCT116 ATTC# CCL-247), and H1299 (ATCC# CRL-5803) cells were maintained in T175 flasks following the ATCC recommended media and handling procedures. […] A 20,000 cells/ml solution was made for plating. Cells were plated in black Packard 96 well plates by placing 100 μl per well (2,000 cells per well). […] The definitions of the cell types used are as follows: A549 is lung carcinoma; HI 299 is non-small cell lung carcinoma; HI 155 is non-small cell lung carcinoma; AsPC-1 is pancreatic adenocarcinoma; Caov-3 is ovarian adenocarcinoma; COLO 205 is colorectal adenocarcinoma; DLD-1 colorectal adenocarcinoma; HCT116 is colorectal carcinoma; DU 145 is prostate carcinoma; ES-2 is ovarian clear cell carcinoma; H460 is large cell lung carcinoma; HELA is cervical adenocarcinoma; MIA PaCa-2 is pancreatice carcinoma; OVCAR-3 is ovarian adenocarcinoma; OVCAR8 is ovarian carcinoma; PC3 is prostate adenocarcinoma; SK-OV-3 is ovarian adenocarcinoma; SU86.86 is pancreatic carcinoma; TOV-21G is avarian clear cell carcinoma; U2OS is bone osteosarcoma; is ASPC-I is pancreatic adenocarcinoma; BXPC-3 is pabcreatic adenocarcinoma; HL60 is promyeloblast promyelocytic leukemia; K562 is bone marrow chronic myelogenous leukemia; L1210 is mouse lymphocytic leukemia; MOLT3 is T lymphoblast acute lymphoblastic leukemia; MOLT4 is T lymphoblast acute lymphoblastic leukemia; SW620 is colorectal adenocarcinoma; THP-1 is monocyte acute monocytic leukemia; U937 is histiocytic lymphoma; and UACC-257 is melanoma.
(§2) Compounds and additional media were added 24 hours after cell plating. […] All compound testing was done in duplicate using 6.3 fold dilutions starting with 10 mM. […] Taxol and at least one additional control were run on all plates. Three microliters of the compound master plate were added to deep well blocks containing 750 μl of RPMI media. One hundred microliters were transferred from the compound/media deep well blocks to the plated cells resulting in a 500 fold dilution of the compounds. Cells were grown at 37° C., 5% CO2 for 48 hours.
(§3) Cells to be analyzed by photography were fixed and stained. One hundred microliters of media were removed and 100 μl of 9.3% formamide was added to each well. Plates were left on the benchtop for 45 minutes. A staining solution containing 1.55 μl of 1 mg/ml DAPI added to 18.75 ml PBS was warmed for 15 minutes at 37° C. The cells were aspirated prior to washing with 100 μl of PBS. Seventy microliters of PBS were aspirated and 170 μl of the DAPI solution were added to each well of fixed cells. Plates were left at room temperature for one hour then aspirated and washed twice with 100 μl of PBS. The stained cells were left at 4° C. for a minimum of 16 hours before photographic analysis with Array Scan II (Cellomics). Analysis of the photographic images to determine numbers of live cells (proliferation), apoptotic cells and dead cells, were according to the methods described in U.S. Utility patent application Ser. No. 10/652,440, which incorporated herein in its entirety.

Experiment [2] concerns H1299 cells. Description: Cell proliferation PAD assay, H1299. It is filed as cell-based. The note with it: Homo sapiens, NCI-H1299, 3pt, 48 hours, read-out: H1299 3pt. Here is the method:
as §1, §2, §3

For `COc1ccc(NS(=O)(=O)c2cccc3nonc23)cc1` [compound 51, N-(4-methoxyphenyl)-2,1,3-benzoxadiazole-4-sulfonamide], the IC50 in experiment [1] and in experiment [2] was at least 20 µM throughout.
As to `O=S(=O)(Nc1cc(Cl)cc(Cl)c1)c1cccc2nonc12` [compound 52, N-(3,5-dichlorophenyl)-2,1,3-benzoxadiazole-4-sulfonamide], the IC50 in experiment [1] and in experiment [2] was at least 20 µM in each case.
Take `O=S(=O)(NCC1CCCCC1)c1cccc2nonc12` [compound 53, N-(cyclohexylmethyl)-2,1,3-benzoxadiazole-4-sulfonamide]: the IC50 in experiment [1] and in experiment [2] was at least 20 µM in each case.
Turning to `Cc1ccc(NS(=O)(=O)c2cccc3nonc23)c(Cl)c1` [compound 54, N-(2-chloro-4-methylphenyl)-2,1,3-benzoxadiazole-4-sulfonamide], the IC50 in experiment [1] and in experiment [2] was at least 20 µM each time.
`O=S(=O)(NCCN1CCCC1)c1cccc2nonc12` [compound 55, N-(2-pyrrolidin-1-ylethyl)-2,1,3-benzoxadiazole-4-sulfonamide]: the IC50 in experiment [1] and in experiment [2] was at least 20 µM each time.
Turning to `Cc1ccc(Cl)cc1NS(=O)(=O)c1cccc2nonc12` [compound 56, N-(5-chloro-2-methylphenyl)-2,1,3-benzoxadiazole-4-sulfonamide], the IC50 in experiment [1] and in experiment [2] was at least 20 µM in each case.
As for `O=S(=O)(Nc1ccccc1I)c1cccc2nonc12` [compound 57, N-(2-iodophenyl)-2,1,3-benzoxadiazole-4-sulfonamide], the IC50 in experiment [1] and in experiment [2] was at least 20 µM in each case.
Regarding `O=S(=O)(Nc1ccccn1)c1cccc2nonc12` [compound 58, N-pyridin-2-yl-2,1,3-benzoxadiazole-4-sulfonamide], the IC50 in experiment [1] and in experiment [2] was at least 20 µM in each case.
For `O=S(=O)(NCCF)c1cccc2nonc12` [compound 59, N-(2-fluoroethyl)-2,1,3-benzoxadiazole-4-sulfonamide], the IC50 in experiment [1] and in experiment [2] was at least 20 µM each time.
Turning to `O=S(=O)(Nc1cc(Cl)ccc1Cl)c1cccc2nonc12` [compound 60, N-(2,5-dichlorophenyl)-2,1,3-benzoxadiazole-4-sulfonamide], the IC50 in experiment [1] and in experiment [2] was at least 20 µM throughout.
Take `COC(=O)c1ccc(C(=O)OC)c(NS(=O)(=O)c2cccc3nonc23)c1` [compound 63, dimethyl 2-[(2,1,3-benzoxadiazol-4-ylsulfonyl)amino]terephthalate]: the IC50 in experiment [1] and in experiment [2] was at least 20 µM in each case.
Consider `O=[N+]([O-])c1ccc(NS(=O)(=O)c2cccc3nonc23)cc1` [compound 65, N-(4-nitrophenyl)-2,1,3-benzoxadiazole-4-sulfonamide], for which the IC50 in experiment [1] and in experiment [2] was at least 20 µM each time.
With `O=S(=O)(Nc1ccc(N2CCOCC2)c(Cl)c1)c1cccc2nonc12` [compound 66, N-(3-chloro-4-morpholin-4-ylphenyl)-2,1,3-benzoxadiazole-4-sulfonamide], the IC50 in experiment [1] and in experiment [2] was at least 20 µM throughout.
On to `O=S(=O)(Nc1ccccc1OC(F)(F)F)c1cccc2nonc12` [compound 67, N[2-(trifluoromethoxy)phenyl]2,1,3-benzoxadiazole-4-sulfonamide], for which the IC50 in experiment [1] and in experiment [2] was at least 20 µM each time.
With `O=S(=O)(Nc1ccncc1)c1cccc2nonc12` [compound 68, N-pyridin-4-yl-2,1,3-benzoxadiazole-4-sulfonamide], the IC50 in experiment [1] and in experiment [2] was at least 20 µM in each case.
For `O=S(=O)(Nc1cccc2nsnc12)c1cc(F)c(F)c(F)c1` [compound 71, N-2,1,3-benzothiadiazol-4-yl-3,4,5-trifluorobenzenesulfonamide], the IC50 is 1 to 20 µM in experiment [1] and at least 20 µM in experiment [2].
Consider `CCOC(=O)c1cccc(NS(=O)(=O)c2cccc3nonc23)c1` [compound 74, ethyl 3-[(2,1,3-benzoxadiazol-4-ylsulfonyl)amino]benzoate], for which the IC50 in experiment [1] and in experiment [2] was at least 20 µM in each case.
On to `O=S(=O)(Nc1cccc2nsnc12)c1ccc(F)c(Cl)c1` [compound 76, N-2,1,3-benzothiadiazol-4-yl-3-chloro-4-fluorobenzenesulfonamide], for which the IC50 in experiment [1] and in experiment [2] was at least 20 µM each time.
As for `O=S(=O)(Nc1cccc2nsnc12)c1ccc(F)cc1Br` [compound 77, N-2,1,3-benzothiadiazol-4-yl-2-bromo-4-fluorobenzenesulfonamide], the IC50 in experiment [1] and in experiment [2] was at least 20 µM in each case.
Regarding `O=S(=O)(Nc1cccc2nsnc12)c1cc(Cl)c(O)c(Cl)c1` [compound 96, N-2,1,3-benzothiadiazol-4-yl-3,5-dichloro-4-hydroxybenzenesulfonamide], the IC50 in experiment [1] and in experiment [2] was at least 20 µM throughout.
On to `O=S(=O)(Nc1cccc2nsnc12)c1cccc(Br)c1` [compound 97, N-2,1,3-benzothiadiazol-4-yl-3-bromoberizenesulfonamide], for which the IC50 in experiment [1] and in experiment [2] was at least 20 µM each time.
For the compound `O=S(=O)(Nc1cccc2nsnc12)c1ccc(CBr)cc1` [compound 98, N-2,1,3-benzothiadiazol-4-yl-4-(bromomethyl)benzenesulfonamide], the IC50 in experiment [1] and in experiment [2] was at least 20 µM throughout.
Take `N#Cc1ccccc1S(=O)(=O)Nc1cccc2nsnc12` [compound 100, N-2,1,3-benzothiadiazol-4-yl-2-cyanobenzenesulfonamide]: the IC50 in experiment [1] and in experiment [2] was at least 20 µM in each case.
As to `N#Cc1cccnc1N1CCN(S(=O)(=O)c2cccc3nonc23)CC1` [compound 119, 2-[4-(2,1,3-benzoxadiazol-4-ylsulfonyl)piperazin-1-yl]nicotinonitrile], the IC50 in experiment [1] and in experiment [2] was at least 20 µM throughout.
With `N#Cc1ccc(N2CCN(S(=O)(=O)c3cccc4nonc34)CC2)nc1` [compound 120, 6-[4-(2,1,3-benzoxadiazol-4-ylsulfonyl)piperazin-1-yl]nicotinonitrile], the IC50 in experiment [1] and in experiment [2] was at least 20 µM throughout.
On to `O=S(=O)(c1cccc2nonc12)N1CCN(c2ccccn2)CC1` [compound 123, 4-[(4-Pyridin-2-ylpiperazin-1-yl)-sulfonyl]-2,1,3-benzoxadiazole], for which the IC50 in experiment [1] and in experiment [2] was at least 20 µM each time.
With `O=S(=O)(c1cccc2nonc12)N1CCN(c2cc(C(F)(F)F)ccn2)CC1` [compound 124, 4-({4-[4-(trifluoromethyl)pyridin-2-yl]piperazin-1-yl}sulfonyl)-2,1,3-benzoxadiazole], the IC50 in experiment [1] and in experiment [2] was at least 20 µM each time.
On to `O=S(=O)(c1cccc2nonc12)N1CCN(c2cccc(C(F)(F)F)c2)CC1` [compound 125, 4({4-[3-(trifluoromethyl)phenyl]piperazin-1-yl}sulfonyl)-2,1,3-benzoxadiazole], for which the IC50 in experiment [1] and in experiment [2] was at least 20 µM each time.
Turning to `O=S(=O)(c1cccc2nonc12)N1CCN(c2ccncc2)CC1` [compound 126, 4-[(4-pyridin-4-ylpiperazin-1-yl)sulfonyl]-2,1,3-benzoxadiazole], the IC50 in experiment [1] and in experiment [2] was at least 20 µM in each case.
In the case of `O=S(=O)(c1cccc2nonc12)N1CCN(CCN2CCOCC2)CC1` [compound 127], the IC50 in experiment [1] and in experiment [2] was at least 20 µM throughout.
Turning to `CC(=O)N1CCN(S(=O)(=O)c2cccc3nonc23)CC1` [compound 128, 4-[(4-acetylpiperazin-1-yl)sulfonyl]-2,1,3-benzoxadiazole], the IC50 in experiment [1] and in experiment [2] was at least 20 µM throughout.
`O=C(CN1CCN(S(=O)(=O)c2cccc3nonc23)CC1)N1CCOCC1` [compound 129, 4-{[4-(2-morpholin-4-yl-2-oxoethyl)piperazin-1-yl]sulfonyl}-2,1,3-benzoxadiazole]: the IC50 in experiment [1] and in experiment [2] was at least 20 µM each time.

(Values after US20050282818A1, “Ubiquitin ligase inhibitors” (Rigel Pharmaceuticals, Inc., priority 2004, published 2005).)
